Experimental findings from patent US7560466B2, “Methods of treating or preventing autoimmune diseases with 2,4-pyrimidinediamine compounds” (Rigel Pharmaceuticals, Inc., priority 2003, dated 2009) are described below.

Where two headings read alike, the source gives them in different places.

For experiment [1], the system named is cultured human mast cells (CHMC), IgE-induced degranulation. Briefly: CHMC low cell density IgE activation: tryptase assay. In kind it is cell-based. An outline of the steps: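 Cord-blood CD34+-derived mucosal mast cells (SCF/IL-6 medium), 1000–1500 cells/well, preincubated with compound 1 h at 37°C, then anti-IgE stimulated 30 min at 37°C.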
For experiment [2], the system named is cultured human mast cells (CHMC), ionomycin-induced degranulation. The experiment in a line: CHMC low cell density ionomycin activation: tryptase assay. It is filed as cell-based. Particulars: ionomycin activation, 3pt, read-out: LD Tryptase, CHMC, Iono, 3pt.
Where [3] appears, read: low cell density CHMC, 3pt, read-out: LD Tryptase, CHMC, IgE, 3pt.
[4] abbreviates: low cell density CHMC, 8pt, read-out: LD Tryptase, CHMC, IgE, 8pt.
[5] abbreviates: CHMC low cell density, 3pt, read-out: LD Tryptase, CHMC, IgE, 3pt.
Setting [6] is: CHMC low cell density, 8pt, read-out: LD Tryptase, CHMC, IgE, 8pt.

On to `Fc1cnc(Nc2ccc(-c3cnco3)cc2)nc1Nc1ccc2c(c1)NCCO2` [Compound 222, N4-(3,4-Dihydro-2H,4H-Benz[1,4]oxazin-6-yl)-5-fluoro-N2-[4-(oxazol-5-yl)phenyl]-2,4-pyrimidinediamine], for which the IC50 was below 10 µM in experiment [1] (setting [3]), below 10 µM in experiment [1] (setting [4]) and above 10 µM in experiment [2] (low cell density CHMC).

As to `CC1(C)COc2ccc(Nc3nc(Nc4ccc(-c5cnco5)cc4)ncc3F)cc2N1` [Compound 223, N4-(3,4-Dihydro-3,3-dimethyl-2H,4H-benz[1,4]oxazin-6-yl)-5-fluoro-N2-[4-(oxazol-5-yl)phenyl]-2,4-pyrimidinediamine], the IC50 is below 10 µM in experiment [1] (setting [3]), below 10 µM in experiment [1] (setting [4]) and above 10 µM in experiment [2] (low cell density CHMC).

On to `C[C@@H]1Oc2ccc(Nc3nc(Nc4ccc(-c5cnco5)cc4)ncc3F)cc2NC1=O` [Compound 225], for which the IC50 in experiment [1] (setting [3]) was below 10 µM; in experiment [1] (setting [4]), below 10 µM; in experiment [2] (low cell density CHMC) it was above 10 µM.

Turning to `Fc1cnc(Nc2cccc(-c3cnco3)c2)nc1Nc1ccc2c(c1)NCCO2` [Compound 232, N4-(3,4-Dihydro-2H,4H-benz[1,4]oxazin-6-yl)-5-fluoro-N2-[3-(oxazol-5-yl)phenyl]-2,4-pyrimidinediamine], the IC50 in experiment [1] (setting [3]) was below 10 µM; in experiment [1] (setting [4]), below 10 µM; in experiment [2] (low cell density CHMC), above 10 µM.

As to `CC1(C)COc2ccc(Nc3nc(Nc4cccc(-c5cnco5)c4)ncc3F)cc2N1` [Compound 233, N4-(3,4-Dihydro-3,3-dimethyl-2H,4H-benz[1,4]oxazin-6-yl)-5-fluoro-N2-[3-(oxazol-5-yl)phenyl]-2,4-pyrimidinediamine], the IC50 in experiment [1] (setting [3]) was below 10 µM; in experiment [1] (setting [4]) it was below 10 µM; in experiment [2] (low cell density CHMC) it was above 10 µM.

Regarding `CC1(C)COc2ccc(Nc3nc(Nc4ccc(-c5ncco5)cc4)ncc3F)cc2N1` [Compound 238, N4-(3,4-Dihydro-3,3-dimethyl-2H,4H-benz[1,4]oxazin-6-yl)-5-fluoro-N2-[4-(oxazol-2-yl)phenyl]-2,4-pyrimidinediamine], the results for the IC50 in experiment [1] (setting [3]), in experiment [1] (setting [4]) and in experiment [2] (low cell density CHMC) were below 10 µM, below 10 µM and above 10 µM, respectively.

On to `CN1CCOc2ccc(Nc3nc(Nc4ccc(-c5ncco5)cc4)ncc3F)cc21` [Compound 243, N4-(2,3-Dihydro-4-methyl-2H-benz[1,4]oxazin-6-yl)-5-fluoro-N2-[4-(oxazol-2-yl)phenyl]-2,4-pyrimidinediamine], for which the IC50 in experiment [1] (setting [3]) is below 10 µM; in experiment [1] (setting [4]), below 10 µM; in experiment [2] (low cell density CHMC), above 10 µM.

`COc1cc(Nc2ncc(F)c(Nc3ccc4c(c3)NCC(CCO)O4)n2)cc(OC)c1` (centres unmarked) [Compound 253, N4-[3,4-Dihydro-2-(2-hydroxyethyl)-2H,4H-benz[1,4]oxazin-6-yl]-N2-(3,5-dimethoxyphenyl)-5-fluoro-2,4-pyrimidinediamine]: the IC50 in experiment [1] (setting [3]) was below 10 µM; in experiment [1] (setting [4]), below 10 µM; in experiment [2] (low cell density CHMC), above 10 µM.

On to `CNC(=O)COc1cccc(Nc2ncc(F)c(Nc3ccc4c(c3)NC(=O)CS4)n2)c1` [Compound 254, 5-Fluoro-N2-[3-(N-methylamino)carbonylmethyleneoxyphenyl]-N4-(3-oxo-2H,4H-benzo[1,4]thiazin-6-yl)-2,4-pyrimidinediamine], for which the IC50 in experiment [1] (setting [3]) is below 10 µM; in experiment [1] (setting [4]), below 10 µM; in experiment [2] (low cell density CHMC), above 10 µM.

Consider `Cc1cc(C)cc(Nc2ncc(F)c(Nc3ccc4c(c3)NCC(CCO)O4)n2)c1` (centres unmarked) [Compound 255, N4-[2,3-Dihydro-2-(2-hydroxyethyl)-2H,4H-benz[1,4]oxazin-6-yl]-N2-(3,5-dimethylphenyl)-5-fluoro-2,4-pyrimidinediamine], for which the IC50 is below 10 µM in experiment [1] (setting [3]), below 10 µM in experiment [1] (setting [4]) and above 10 µM in experiment [2] (low cell density CHMC).

`CNC(=O)COc1cccc(Nc2ncc(F)c(Nc3ccc4c(c3)NCCS4)n2)c1` [Compound 258, N4-(3,4-Dihydro-2H,4H-benzo[1,4]thiazin-6-yl)-5-fluoro-N2-[3-(N-methylamino)carbonylmethyleneoxyphenyl]-2,4-pyrimidinediamine]: the figures for the IC50 in experiment [1] (setting [3]), in experiment [1] (setting [4]) and in experiment [2] (low cell density CHMC) were below 10 µM, below 10 µM and above 10 µM, respectively.

For `CNC(=O)COc1cccc(Nc2ncc(F)c(Nc3ccc4c(c3)N(C)C(=O)CS4)n2)c1` [Compound 259, 5-Fluoro-N2-[3-(N-methylamino)carbonylmethyleneoxyphenyl]-N4-(4-methyl-3-oxo-2H-benzo[1,4]thiazin-6-yl)-2,4-pyrimidinediamine], the IC50 in experiment [1] (setting [3]) is below 10 µM; in experiment [1] (setting [4]) it was below 10 µM; in experiment [2] (low cell density CHMC) it was above 10 µM.

Turning to `NC(=S)c1cccc(Nc2ncc(F)c(Nc3ccc4c(c3)NC(=O)CO4)n2)c1` [Compound 261, N2-(3-Benzothioamide)-5-fluoro-N4-(3-oxo-2H,4H-benz[1,4]oxazin-6-yl)-2,4-pyrimidinediamine], the IC50 in experiment [1] (setting [3]) is below 10 µM; in experiment [2] (low cell density CHMC), above 10 µM.

With `NC(=S)c1cccc(Nc2ncc(F)c(Nc3ccc4c(c3)NC(=O)C(CCO)O4)n2)c1` (centres unmarked) [Compound 262, N2-(3-Benzothioamide)-5-fluoro-N4-[2-(2-hydroxyethyl)-3-oxo-2H,4H-benz[1,4]oxazin-6-yl]-2,4-pyrimidinediamine], the figures for the IC50 in experiment [1] (setting [3]) and in experiment [2] (low cell density CHMC) were below 10 µM and above 10 µM, respectively.

For the compound `CNC(=O)COc1cccc(Nc2ncc(F)c(N(C)c3ccc4c(c3)OCCO4)n2)c1` [Compound 385, N4-(3,4-Ethylenedioxyphenyl)-5-fluoro-N4-methyl-N2-[3-(N-methylamino)carbonylmethyleneoxyphenyl]-2,4-pyrimidinediamine], the IC50 in experiment [1] (setting [5]) is below 10 µM; in experiment [1] (setting [6]), below 10 µM; in experiment [2] (CHMC low cell density), above 10 µM.

Turning to `CC(=O)N1CCN(c2cccc(Nc3ncc(F)c(Nc4ccc5c(c4)OC(F)(F)C(F)(F)O5)n3)c2)CC1` [Compound 431], the values for the IC50 in experiment [1] (setting [5]), in experiment [1] (setting [6]) and in experiment [2] (CHMC low cell density) were below 10 µM, below 10 µM and above 10 µM, respectively.

On to `CC(=O)N1CCN(c2ccc(Nc3ncc(F)c(Nc4ccc5c(c4)OC(F)(F)C(F)(F)O5)n3)cc2)CC1` [Compound 432], for which the IC50 in experiment [1] (setting [5]) was below 10 µM; in experiment [2] (CHMC low cell density), above 10 µM.

For `CNC(=O)COc1cccc(Nc2ncc(F)c(N(CC(=O)OC)c3ccc4c(c3)OCCO4)n2)c1` [Compound 446, N4-(3,4-Ethylenedioxyphenyl)-5-fluoro-N4-(methoxycarbonylmethyl)-N2-[3-(N-methylamino)carbonylmethyleneoxyphenyl]-2,4-pyrimidinediamine], the IC50 in experiment [1] (setting [5]) was below 10 µM; in experiment [2] (CHMC low cell density) it was above 10 µM.

For `CNC(=O)c1cc(Nc2ncc(F)c(N(C)c3ccc4c(c3)OCCO4)n2)ccc1Cl` [Compound 453, N2-[4-Chloro-3-(N-methylamino)carbonylphenyl]-N4-(3,4-ethylenedioxyphenyl)-5-fluoro-N4-methyl-4-pyrimidinediamine], the IC50 is below 10 µM in experiment [1] (setting [5]) and above 10 µM in experiment [2] (CHMC low cell density).

Turning to `CN(C)c1ncc(F)c(N(C)c2ccc3c(c2)OCCO3)n1` [Compound 462, N2-Dimethyl-N4-(3,4-ethylenedioxyphenyl)-5-fluoro-N4-methyl-2,4-pyrimidinediamine], the IC50 in experiment [1] (setting [5]) and in experiment [2] (CHMC low cell density) was above 10 µM in each case.

For `CNS(=O)(=O)c1ccc(Nc2ncc(F)c(Nc3ccc4c(c3)NC(=O)C(C)(C)O4)n2)cc1OC` [Compound 496, N4-(2,2-Dimethyl-3-oxo-4H-benz[1,4]oxazin-6-yl)-5-fluoro-N2-[3-methoxyphenyl-4-(methylamino)sulfonyl]-2,4-pyrimidinediamine], the IC50 in experiment [1] (setting [5]), in experiment [1] (setting [6]) and in experiment [2] (CHMC low cell density) was below 10 µM each time.

Take `CNC(=O)COc1c(C)cc(Nc2ncc(F)c(N(C)c3ccc4c(c3)OCCO4)n2)cc1C` [Compound 635, N2-[3,5-Dimethyl-4-(N-methylamino)carbonylmethyleneoxyphenyl]-N4-(3,4-ethylenedioxyphenyl)-5-fluoro-N4-methyl-2,4-pyrimidinediamine]: the IC50 in experiment [1] (setting [5]), in experiment [1] (setting [6]) and in experiment [2] (CHMC low cell density) was below 10 µM each time.

Consider `CNC(=O)COc1c(C)cc(Nc2ncc(F)c(N(C)c3ccc4c(c3)OC(F)(F)C(F)(F)O4)n2)cc1C` [Compound 636, N2-[3,5-Dimethyl-4-(N-methylamino)carbonylmethyleneoxyphenyl]-5-fluoro-N4-methyl-N4-[3,4-(tetrafluoroethylenedioxy)phenyl]-2,4-pyrimidinediamine], for which the IC50 in experiment [1] (setting [5]), in experiment [1] (setting [6]) and in experiment [2] (CHMC low cell density) was below 10 µM in each case.

`CNC(=O)COc1c(C)cc(Nc2ncc(F)c(Nc3ccc4c(c3)OC(F)(F)C(F)(F)O4)n2)cc1C` [Compound 637, N2-[3,5-Dimethyl-4-(N-methylamino)carbonylmethyleneoxyphenyl]-5-fluoro-N4-[3,4-(tetrafluoroethylenedioxy)phenyl]-2,4-pyrimidinediamine]: the figures for the IC50 in experiment [1] (setting [5]) and in experiment [2] (CHMC low cell density) were below 10 µM and above 10 µM, respectively.

Turning to `COC(=O)Cn1ccc2ccc(Nc3ncc(F)c(Nc4ccc5c(c4)NC(=O)C(C)(C)O5)n3)cc21` [Compound 639, N4-(2,2-Dimethyl-3-oxo-4H-benz[1,4]oxazin-6-yl)-5-fluoro-N2-[1-(methoxycarbonylmethylene)indol-6-yl]-2,4-pyrimidinediamine], the IC50 was below 10 µM in experiment [1] (setting [5]), below 10 µM in experiment [1] (setting [6]) and above 10 µM in experiment [2] (CHMC low cell density).

`COC(=O)Cn1ccc2ccc(Nc3ncc(F)c(Nc4ccc5c(c4)OCCO5)n3)cc21` [Compound 642, N4-(3,4-Ethylenedioxyphenyl)-5-fluoro-N2-[1-(methoxycarbonylmethylene)indol-6-yl]-2,4-pyrimidinediamine]: the figures for the IC50 in experiment [1] (setting [5]), in experiment [1] (setting [6]) and in experiment [2] (CHMC low cell density) were below 10 µM, below 10 µM and above 10 µM, respectively.
